Measurements: publication PMC4014698 (Pharmaceuticals, 2014)
In brackets after ≈: the same amount, converted by molar mass. Non-standard residues stand in square brackets, D forms with d. Residues, ends and D or L forms follow the SMILES beside them.

How the values were obtained:
[1] = test system: human erythrocytes; experiment: Hemolytic activity (HC50); assay type: cell-based; details: 1 hour incubation at 37 °C; human red blood cells; Figure 8, 100% control 0.1% Triton-X 100
[2] = test system: human erythrocytes; experiment: Hemolytic activity (HC50); assay type: cell-based; details: for Hemolytic activity HC50: concentration giving 50% hemolysis after 18 h at 37 °C, 1% human erythrocytes in PBS pH 7.4, hemoglobin release at 570 nm, 100% control water (Figure 7)
Procedure: Hemoglobin release was determined spectrophotometrically at 570 nm.
From these plots, the HC50 values, the peptide concentration that produces 50% hemolysis of human red blood cells after 18 hours in the standard microtiter dilution method was determined.

[3] = test system: Acinetobacter baumannii (11 different isolates); assay type: cell-based; details: geometric mean of the MIC values from 11 different isolates of A. baumannii; Table 3A
Text: (§1) All the A. baumannii strains used in this study were (1) obtained from the collection of Dr. Anthony A. Campagnari at the University of Buffalo and originally isolated from different patients and organs/tissues (strain 649, blood; strain 689, groin; strain 759, gluteus; strain 821, urine; strain 884, axilla; strain 899, perineum; strain 964, throat; strain 985, pleural fluid and strain 1012, sputum); (2) were purchased from the American Type Culture Collection (ATCC, Manassas, VA, USA) (strain ATCC 17978, fatal meningitis; and strain ATCC 19606, urine).
(§2) The minimal inhibitory concentration (MIC) is defined as the lowest peptide concentration that inhibited bacterial growth. MICs were measured by a standard microtiter dilution method in Mueller Hinton (MH) medium. Briefly, cells were grown overnight at 37 °C in MH broth and were diluted in the same medium. Serial dilutions of the peptides were added to the microtiter plates in a volume of 50 µL, followed by the addition of 50 µL of bacteria to give a final inoculum of 5 × 10^5 colony-forming units (CFU)/mL. The plates were incubated at 37 °C for 24 h, and the MICs were determined.
Antibacterial activities against six strains of P. aeruginosa and eleven strains of A. baumannii are compared in Table 3. Geometric mean of MIC values was calculated to provide an overall view of antimicrobial activity of different analogs. It is clear that our peptides were effective in killing the microorganisms tested. Compared to a dramatic reduction in hemolytic activity, antibacterial activity of D-piscidin 1 and D-dermaseptin S4 analogs against eleven strains of A. baumannii maintained the same level (within 2-fold) upon the substitution of “specificity determinant(s)” (Table 3).

[4] = test system: A. baumannii strain 884; experiment: MIC, microtiter dilution; assay type: cell-based, Acinetobacter baumannii; details: source axilla; Mueller-Hinton medium, 37 °C, 24 h, 5 × 10^5 CFU/mL; three sets of determinations
Text: as §1, §2

[5] = test system: A. baumannii strain ATCC 19606; experiment: MIC, microtiter dilution; assay type: cell-based, Acinetobacter baumannii; details: source urine; Mueller-Hinton medium, 37 °C, 24 h, 5 × 10^5 CFU/mL; three sets of determinations
Text: as §1, §2

[6] = test system: A. baumannii strain 759; experiment: MIC, microtiter dilution; assay type: cell-based, Acinetobacter baumannii; details: source gluteus; Mueller-Hinton medium, 37 °C, 24 h, 5 × 10^5 CFU/mL; three sets of determinations
Text: as §1, §2

[7] = test system: A. baumannii strain 821; experiment: MIC, microtiter dilution; assay type: cell-based, Acinetobacter baumannii; details: source urine; Mueller-Hinton medium, 37 °C, 24 h, 5 × 10^5 CFU/mL; three sets of determinations
Text: as §1, §2

[8] = test system: A. baumannii strain 649; experiment: MIC, microtiter dilution; assay type: cell-based, Acinetobacter baumannii; details: source blood; Mueller-Hinton medium, 37 °C, 24 h, 5 × 10^5 CFU/mL; three sets of determinations
Text: as §1, §2

[9] = test system: A. baumannii strain 1012; assay type: cell-based, Acinetobacter baumannii; details: source sputum; Mueller-Hinton medium, 37 °C, 24 h, 5 × 10^5 CFU/mL; three sets of determinations
Text: as §1, §2

[10] = test system: A. baumannii strain 985; assay type: cell-based, Acinetobacter baumannii; details: source pleural fluid; Mueller-Hinton medium, 37 °C, 24 h, 5 × 10^5 CFU/mL; three sets of determinations
Text: as §1, §2

[11] = test system: A. baumannii strain 964; assay type: cell-based, Acinetobacter baumannii; details: source throat; Mueller-Hinton medium, 37 °C, 24 h, 5 × 10^5 CFU/mL; three sets of determinations
Text: as §1, §2

[12] = test system: A. baumannii strain 689; assay type: cell-based, Acinetobacter baumannii; details: source groin; Mueller-Hinton medium, 37 °C, 24 h, 5 × 10^5 CFU/mL; three sets of determinations
Text: as §1, §2

[13] = test system: A. baumannii strain ATCC 17978; assay type: cell-based, Acinetobacter baumannii; details: ATCC 17978, 24 h
Text: as §1, §2

[14] = test system: A. baumannii strain 899; assay type: cell-based, Acinetobacter baumannii; details: source perineum; Mueller-Hinton medium, 37 °C, 24 h, 5 × 10^5 CFU/mL; three sets of determinations
Text: as §1, §2

[15] = test system: Pseudomonas aeruginosa (6 different isolates); details: geometric mean of the MIC values from 6 different isolates of P. aeruginosa; Table 3B
Text: (§3) P. aeruginosa strains used are as follows: strain PAO1 was isolated from a human wound in 1955 in Australia; strain WR5 was isolated from a burn patient at Walter Reed Army Hospital, Washington, DC, USA, in 1976 and is a natural toxA^− mutant, but is virulent in experimental mouse models; strain PAK was originally isolated at Memorial University, St. John’s, Newfoundland, Canada, and is widely used in the analysis of pili; strain PA14 was originally isolated as a clinical isolate in 1995 at the Massachusetts General Hospital, Boston, MA, USA and is virulent in a variety of plant and animal models of infection; strain M2 was originally isolated in 1975 from the gastrointestinal tract of a healthy CF1 mouse, University of Cincinnati College of Medicine, and Shriners Burns Institute, Cincinnati, OH, USA and is virulent in a burn mouse model of P. aeruginosa infection; and strain CP204 was isolated from a cystic fibrosis patient in 1989 at the National Jewish Medical and Research Center, Denver, CO, USA. All strains have been maintained at −80 °C in the laboratory of Michael Vasil, University of Colorado, School of Medicine.
(§4) The minimal inhibitory concentration (MIC) is defined as the lowest peptide concentration that inhibited bacterial growth. MICs were measured by a standard microtiter dilution method in Mueller Hinton (MH) medium. Briefly, cells were grown overnight at 37 °C in MH broth and were diluted in the same medium. […] The plates were incubated at 37 °C for 24 h, and the MICs were determined.
Geometric mean of MIC values was calculated to provide an overall view of antimicrobial activity of different analogs.

[16] = test system: P. aeruginosa strain WR5; details: source burn patient; Mueller-Hinton medium, 37 °C, 24 h, 5 × 10^5 CFU/mL; three sets of determinations
Text: as §3, §4

[17] = test system: P. aeruginosa strain PA14; details: Mueller-Hinton medium, 37 °C, 24 h, 5 × 10^5 CFU/mL; three sets of determinations
Text: as §3, §4

[18] = test system: P. aeruginosa strain PAO1; details: source human wound; Mueller-Hinton medium, 37 °C, 24 h, 5 × 10^5 CFU/mL; three sets of determinations
Text: as §3, §4

[19] = test system: P. aeruginosa strain M2; details: source burn mouse model; Mueller-Hinton medium, 37 °C, 24 h, 5 × 10^5 CFU/mL; three sets of determinations
Text: as §3, §4

[20] = test system: P. aeruginosa strain PAK; details: Mueller-Hinton medium, 37 °C, 24 h, 5 × 10^5 CFU/mL; three sets of determinations
Text: as §3, §4

[21] = test system: P. aeruginosa strain CP204; details: source cystic fibrosis patient; Mueller-Hinton medium, 37 °C, 24 h, 5 × 10^5 CFU/mL; three sets of determinations
Text: as §3, §4

| Compound | MIC GM [3] | MIC 884 [4] | MIC ATCC19606 [5] | MIC 759 [6] | MIC 821 [7] | MIC 649 [8] | Hemolytic activity HC50 [2] | MIC 1012 [9] | MIC 985 [10] | MIC 964 [11] | MIC 689 [12] | MIC ATCC17978 [13] | MIC 899 [14] | MIC GM [15] | MIC WR5 [16] | MIC PA14 [17] | MIC PAO1 [18] | MIC M2 [19] | MIC PAK [20] | MIC CP204 [21] | other results |
| --- | --- | --- | --- | --- | --- | --- | --- | --- | --- | --- | --- | --- | --- | --- | --- | --- | --- | --- | --- | --- | --- |
| CC[C@@H](C)[C@@H](NC(=O)[C@H]1CCCN1C(=O)[C@@H](CCCNC(=N)N)NC(=O)[C@@H](Cc1ccccc1)NC(=O)[C@H](NC(=O)[C@@H](Cc1c[nH]cn1)NC(=O)[C@@H](Cc1c[nH]cn1)NC(=O)[C@@H](Cc1ccccc1)NC(=O)[C@H](N)Cc1ccccc1)[C@H](C)CC)C(=O)N[C@@H](C(=O)N[C@H](Cc1c[nH]cn1)C(=O)N[C@@H](C(=O)NCC(=O)N[C@H](CCCCN)C(=O)N[C@@H](C(=O)N[C@@H](C(=O)N[C@H](Cc1c[nH]cn1)C(=O)N[C@H](CCCNC(=N)N)C(=O)N[C@H](CC(C)C)C(=O)N[C@@H](C(=O)N[C@@H](C(=O)NCC(N)=O)[C@H](C)O)C(C)C)[C@H](C)CC)[C@H](C)O)C(C)C)C(C)C [D-Piscidin 1 G8P] (H-[dF][dF][dH][dH][dI][dF][dR][dP][dI][dV][dH][dV]G[dK][dT][dI][dH][dR][dL][dV][dT]G-NH2) |  |  |  |  |  |  |  |  |  |  |  |  |  |  |  |  |  |  |  |  | Hemolytic activity HC50, 1 hour [1]: 55 µM; Hemolytic activity HC50, 18 hours (Figure 8 comparison) ([2]; 18 hours at 37 °C, human red blood cells, Figure 8, 100% control 0.1% Triton-X 100): 8 µM |
| CC[C@@H](C)[C@@H](NC(=O)CNC(=O)[C@@H](CCCNC(=N)N)NC(=O)[C@@H](Cc1ccccc1)NC(=O)[C@H](NC(=O)[C@@H](Cc1c[nH]cn1)NC(=O)[C@@H](Cc1c[nH]cn1)NC(=O)[C@@H](Cc1ccccc1)NC(=O)[C@H](N)Cc1ccccc1)[C@H](C)CC)C(=O)N[C@@H](C(=O)N[C@H](Cc1c[nH]cn1)C(=O)N[C@H](CCCCN)C(=O)NCC(=O)N[C@H](CCCCN)C(=O)N[C@@H](C(=O)N[C@@H](C(=O)N[C@H](Cc1c[nH]cn1)C(=O)N[C@H](CCCNC(=N)N)C(=O)N[C@H](CC(C)C)C(=O)N[C@@H](C(=O)N[C@@H](C(=O)NCC(N)=O)[C@H](C)O)C(C)C)[C@H](C)CC)[C@H](C)O)C(C)C [D-Piscidin 1 V12K] (H-[dF][dF][dH][dH][dI][dF][dR]G[dI][dV][dH][dK]G[dK][dT][dI][dH][dR][dL][dV][dT]G-NH2) | 2.8 µM (≈ 7.28 µg/mL) | 3.0 µM (≈ 7.8 µg/mL) | 3.0 µM (≈ 7.8 µg/mL) | 3.0 µM (≈ 7.8 µg/mL) | 3.0 µM (≈ 7.8 µg/mL) | 3.0 µM (≈ 7.8 µg/mL) | 35 µM | 3.0 µM (≈ 7.8 µg/mL) | 1.5 µM (≈ 3.9 µg/mL) | 3.0 µM (≈ 7.8 µg/mL) | 3.0 µM (≈ 7.8 µg/mL) | 3.0 µM (≈ 7.8 µg/mL) | 3.0 µM (≈ 7.8 µg/mL) | 17.0 µM (≈ 44.2 µg/mL) | 12.0 µM (≈ 31.2 µg/mL) | 24.0 µM (≈ 62.4 µg/mL) | 24.0 µM (≈ 62.4 µg/mL) | 24.0 µM (≈ 62.4 µg/mL) | 6.0 µM (≈ 15.6 µg/mL) | 24.0 µM (≈ 62.4 µg/mL) |  |
| CC[C@@H](C)[C@@H](NC(=O)CNC(=O)[C@@H](CCCNC(=N)N)NC(=O)[C@@H](Cc1ccccc1)NC(=O)[C@H](NC(=O)[C@@H](Cc1c[nH]cn1)NC(=O)[C@@H](Cc1c[nH]cn1)NC(=O)[C@@H](Cc1ccccc1)NC(=O)[C@H](N)Cc1ccccc1)[C@H](C)CC)C(=O)N[C@@H](C(=O)N[C@H](Cc1c[nH]cn1)C(=O)N[C@@H](C(=O)NCC(=O)N[C@H](CCCCN)C(=O)N[C@@H](C(=O)N[C@@H](C(=O)N[C@H](Cc1c[nH]cn1)C(=O)N[C@H](CCCNC(=N)N)C(=O)N[C@H](CC(C)C)C(=O)N[C@@H](C(=O)N[C@@H](C(=O)NCC(N)=O)[C@H](C)O)C(C)C)[C@H](C)CC)[C@H](C)O)C(C)C)C(C)C [D-Piscidin 1] (H-[dF][dF][dH][dH][dI][dF][dR]G[dI][dV][dH][dV]G[dK][dT][dI][dH][dR][dL][dV][dT]G-NH2) | 2.8 µM (≈ 7.2 µg/mL) | 3.0 µM (≈ 7.71 µg/mL) | 3.0 µM (≈ 7.71 µg/mL) | 3.0 µM (≈ 7.71 µg/mL) | 3.0 µM (≈ 7.71 µg/mL) | 3.0 µM (≈ 7.71 µg/mL) | 1.8 µM | 6.1 µM (≈ 15.7 µg/mL) | 1.5 µM (≈ 3.86 µg/mL) | 3.0 µM (≈ 7.71 µg/mL) | 1.5 µM (≈ 3.86 µg/mL) | 3.0 µM (≈ 7.71 µg/mL) | 3.0 µM (≈ 7.71 µg/mL) | 19.3 µM (≈ 49.6 µg/mL) | 12.2 µM (≈ 31.4 µg/mL) | 24.3 µM (≈ 62.5 µg/mL) | 24.3 µM (≈ 62.5 µg/mL) | 24.3 µM (≈ 62.5 µg/mL) | 12.2 µM (≈ 31.4 µg/mL) | 24.3 µM (≈ 62.5 µg/mL) | Hemolytic activity Fold improvement in HC50 [2]: 1.0 fold |
